According to patent publication US12281079B2, “Quinoline derivatives, processes for their preparation and uses thereof for the treatment of cancer” (Lead Discovery Center GmbH, priority 2019, dated 2025):

Target: mitochondrial RNA polymerase (POLRMT) (Mus musculus, UniProt Q8BKF1)
Assay: Homogeneous TR-FRET assay for mitochondrial transcription activity
Type: biochemical
Details: homogeneous TR-FRET assay according to Example 4
Excerpt: The TR-FRET assay was basically conducted as described in WO2016/193231A1, especially as described in example 1 (hereby incorporated by reference). With respect to the back ground of the mitochondrial transcription it is referred to Falkenberg et al. (2002) and Posse et al. (Posse et al., 2015). The method monitors the activity of mitochondrial RNA-polymerase via detection of the formation of its product, a 407 bp long RNA sequence. Detection of the product is facilitated by hybridization of two DNA-oligonucleotide probes to specific and adjacent sequences within the RNA product sequence. Upon annealing of the probes, two fluorophores that are coupled directly to an acceptor nucleotide probe (ATT0647, 5′) or introduced via a coupled streptavidin interacting with a biotinylated donor nucleotide probe on the other side (Europium cryptate, 3′) are brought into sufficient proximity to serve as a fluorescence-donor-acceptor pair as generally described in Walters and Namchuk (2003). Thus, a FRET signal at 665 nm is generated upon excitation at 340 nm.
Briefly, the protocol described here was applied for screening and activity determination in a low-volume 384-well microtiter plate with non-binding surface. For high-throughput application in the 1536-well microtiter plate format, volumes of the reagent mixes were adjusted, maintaining the volumetric ratio. Proteins POLRMT (NM_172551.3), TFAM (NM_009360.4) and TFB2M (NM_008249.4) were diluted from their stocks to working concentrations of 150 nM, 1.8 μM and 330 nM respectively, in a dilution buffer containing 100 mM Tris-HCl pH 8.0, 200 mM NaCl, 10% (v/v) glycerole, 2 mM glutathione (GSH), 0.5 mM EDTA and 0.1 mg/mL BSA. Protein dilutions and template DNA, comprising a pUC18 plasmid encoding the mitochondrial light strand promoter, restriction linearized proximal to the promoter 3′-end (pUC-LSP), were mixed at the twofold final assay-concentration in a reaction buffer, containing 10 mM Tris-HCl pH 7.5, 10 mM MgCl2, 40 mM NaCl, 2 mM GSH, 0.01% (w/v) Tween-20 and 0.1 mg/mL BSA.
5 μL of this mix were dispensed, depending on the chosen microtiter plate format, using multi-channel pipettes or a Multidrop® dispenser (Thermo Fisher Scientific, Waltham Mass.) into the wells of a microtiter plate and incubated at room temperature (rt) for 10 min. Chemical compounds under scrutiny in the assay were applied using contact-free acoustic droplet-dispensing (Echo520® Labcyte Inc., Sunnyvale Calif.) from 10 mM compound stocks in 100% DMSO, to a final concentration of 10 μM or in serial dilution series of the required concentration range. Equal amounts of DMSO without any compound were added to positive control samples, followed by an incubation step at rt for 10 min.
The enzymatic reaction was started by the addition of 5 μL of a mix of dNTPs in reaction buffer to a final concentration of 500 μM each. No nucleotide mix was added to negative control samples. The content of the wells was mixed using a VarioTeleshaker™ (Thermo Fisher Scientific, Waltham Mass.) at 1500 rpm for 45 sec after which the microtiter plate was centrifuged at 500×g for 1 min. The samples were incubated for 2 h at rt with humidity control to avoid evaporation. The detection reagents were prepared in a buffer that was composed, such that the enzymatic reaction was terminated due to chelating of Mg-ions and increased ionic strength, containing 50 mM Tris-HCl pH 7.5, 700 mM NaCl, 20 mM EDTA, and 0.01% (w/v) Tween-20. Importantly Eu-cryptate-coupled streptavidin had to be preincubated with a 100-fold molar excess of a random sequence oligonucleotide for 10 min at rt in the dark to block unspecific binding of single stranded RNA to the protein. Subsequently, the blocked streptavidin(-Eu) was mixed with the DNA-probes on ice and kept away from light until use. […]

Chain of mitochondrial RNA polymerase (POLRMT) (Q8BKF1 42-1207): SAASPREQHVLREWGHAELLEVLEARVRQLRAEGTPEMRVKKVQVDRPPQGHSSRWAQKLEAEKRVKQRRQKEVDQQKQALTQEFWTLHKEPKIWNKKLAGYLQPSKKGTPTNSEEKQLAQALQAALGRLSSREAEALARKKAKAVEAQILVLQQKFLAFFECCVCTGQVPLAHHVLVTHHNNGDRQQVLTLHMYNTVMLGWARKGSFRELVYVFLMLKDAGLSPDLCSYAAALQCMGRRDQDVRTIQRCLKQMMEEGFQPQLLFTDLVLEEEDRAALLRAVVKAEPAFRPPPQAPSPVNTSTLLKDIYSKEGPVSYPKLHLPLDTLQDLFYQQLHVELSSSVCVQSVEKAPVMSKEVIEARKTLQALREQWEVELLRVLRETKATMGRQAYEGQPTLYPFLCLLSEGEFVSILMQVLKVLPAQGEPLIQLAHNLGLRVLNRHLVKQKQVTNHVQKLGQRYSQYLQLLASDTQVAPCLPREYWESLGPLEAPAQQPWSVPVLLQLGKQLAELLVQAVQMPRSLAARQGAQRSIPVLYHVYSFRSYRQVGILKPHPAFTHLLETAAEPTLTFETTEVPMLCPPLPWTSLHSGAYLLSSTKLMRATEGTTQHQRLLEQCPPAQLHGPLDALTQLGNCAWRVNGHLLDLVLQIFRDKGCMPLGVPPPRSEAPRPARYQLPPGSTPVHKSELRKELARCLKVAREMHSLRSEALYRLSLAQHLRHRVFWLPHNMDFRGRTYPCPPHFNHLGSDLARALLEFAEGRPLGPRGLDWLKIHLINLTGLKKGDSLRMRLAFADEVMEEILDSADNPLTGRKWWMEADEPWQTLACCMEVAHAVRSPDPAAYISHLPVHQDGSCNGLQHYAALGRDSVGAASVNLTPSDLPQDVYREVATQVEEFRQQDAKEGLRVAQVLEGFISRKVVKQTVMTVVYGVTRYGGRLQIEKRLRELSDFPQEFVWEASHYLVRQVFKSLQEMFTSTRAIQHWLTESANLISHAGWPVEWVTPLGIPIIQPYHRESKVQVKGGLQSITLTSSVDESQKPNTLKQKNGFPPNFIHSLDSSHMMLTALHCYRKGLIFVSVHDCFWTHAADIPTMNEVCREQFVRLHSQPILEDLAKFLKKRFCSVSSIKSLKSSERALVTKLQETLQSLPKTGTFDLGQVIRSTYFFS

IC50 [nM]	Structure (SMILES)
100 to 1000	COC(=O)C[C@H]1CCN(C(=O)[C@@H](C)Oc2ccc3c(-c4ccc(F)cc4Cl)ccnc3c2)C1 [Compound 37, methyl 2-[(3R)-1-[(2R)-2-[[4-(2-chloro-4-fluoro-phenyl)-7-quinolyl]oxy]propanoyl]pyrrolidin-3-yl]acetate]
100 to 1000	C[C@@H](Oc1ccc2c(-c3ccc(F)cc3Cl)ccnc2c1)C(=O)O [Compound 44, (R)-2-((4-(2-chloro-4-fluorophenyl)quinolin-7 yl)oxy)propanoic acid]
100 to 1000	CCOC(=O)c1ccc(NC(=O)[C@@H](C)Oc2ccc3c(-c4ccc(F)cc4Cl)ccnc3c2)cc1 [Compound 51, ethyl 4-[[(2R)-2-[[4-(2-chloro-4-fluoro-phenyl)-7-quinolyl]oxy]propanoyl]amino]benzoate]
100 to 1000	COC(=O)C1CC(NC(=O)[C@@H](C)Oc2ccc3c(-c4ccc(F)cc4Cl)ccnc3c2)C1 (stereo partly drawn) [Compound 54, methyl 3-[[(2R)-2-[[4-(2-chloro-4-fluoro-phenyl)-7-quinolyl]oxy]propanoyl]amino]cyclobutanecarboxylate]
100 to 1000	CCOC(=O)C1CCN(C(=O)[C@@H](C)Oc2ccc3c(-c4ccc(F)cc4Cl)ccnc3c2)CC1 [Compound 58, ethyl 1-[(2R)-2-[[4-(2-chloro-4-fluoro-phenyl)-7-quinolyl]oxy]propanoyl]piperidine-4-carboxylate]
100 to 1000	COC(=O)C[C@@H]1CCN(C(=O)[C@@H](C)Oc2ccc3c(-c4ccc(F)cc4Cl)ccnc3c2)C1 [Compound 67, methyl 2-[(3S)-1-[(2R)-2-[[4-(2-chloro-4-fluoro-phenyl)-7-quinolyl]oxy]propanoyl]pyrrolidin-3-yl]acetate]
100 to 1000	COC(=O)[C@@H]1CCCN(C(=O)[C@@H](C)Oc2ccc3c(-c4ccc(F)cc4Cl)ccnc3c2)C1 [Compound 71, methyl (3R)-1-[(2R)-2-[[4-(2-chloro-4-fluoro-phenyl)-7-quinolyl]oxy]propanoyl]piperidine-3-carboxylate]
100 to 1000	CCOC(=O)[C@H]1CCN(C(=O)[C@@H](C)Oc2ccc3c(-c4ccc(F)cc4Cl)ccnc3c2)C1 [Compound 75, ethyl (3S)-1-[(2R)-2-[[4-(2-chloro-4-fluoro-phenyl)-7-quinolyl]oxy]propanoyl]pyrrolidine-3-carboxylate]
1000 to 10000	CCOC(=O)C[C@@H]1CCCN(C(=O)[C@@H](C)Oc2ccc3c(-c4ccc(F)cc4Cl)ccnc3c2)C1 [Compound 89, ethyl 2-[(3S)-1-[(2R)-2-[[4-(2-chloro-4-fluoro-phenyl)-7-quinolyl]oxy]propanoyl]-3-piperidyl]acetate]
1000 to 10000	C[C@@H](Oc1ccc2c(-c3ccccc3Cl)cc(F)nc2c1)C(=O)O [Compound 90, (2R)-2-[[4-(2-chlorophenyl)-2-fluoro-7-quinolyl]oxy]propanoic acid]
1000 to 10000	C[C@@H](Oc1ccc2c(-c3ccc(F)cc3Cl)cc(Cl)nc2c1)C(=O)O [Compound 91, (2R)-2-[[2-chloro-4-(2-chloro-4-fluoro-phenyl)-7-quinolyl]oxy]propanoic acid]

Second part, the compound before the results:

Structure (SMILES)	IC50 [nM]
CC(Oc1ccc2c(-c3ccccc3Cl)ccnc2c1)C(=O)N1CCC[C@H](C(=O)O)C1 (mixture of isomers) [Compound 23, rac-(3S)-1-[2-[[4-(2-chlorophenyl)-7-quinolyl]oxy]propanoyl]piperidine-3-carboxylic acid]	20 to 100
CC(C)NC(=O)C(C)Oc1ccc2c(-c3ccc(F)cc3Cl)ccnc2n1 (racemic) [Compound 109, 2-[[5-(2-chloro-4-fluoro-phenyl)-1,8-naphthyridin-2-yl]oxy]-N-isopropyl-propanamide]	1000 to 10000
CCC(Oc1ccc2c(-c3ccccc3Cl)ccnc2c1)C(=O)N1CCC[C@H](CC(=O)O)C1 (mixture of isomers) [Compound 140, 2-[rac-(3R)-1-[2-[[4-(2-chlorophenyl)-7-quinolyl]oxy]butanoyl]-3-piperidyl]acetic acid]	20 to 100
Cc1cccc(C)c1-c1ccnc2cc(O[C@H](C)C(=O)N3CCCC(CS(N)(=O)=O)C3)ccc12 (mixture of isomers) [Compound 190, [1-[rac-(2R)-2-[[4-(2,6-dimethylphenyl)-7-quinolyl]oxy]propanoyl]-3-piperidyl]methanesulfonamide]	< 20
CCOC(=O)C[C@H]1CCCN(C(=O)[C@@H](C)Oc2ccc3c(-c4c(C)cccc4C)ccnc3c2)C1 [Compound 6, ethyl 2-[(3R)-1-[(2R)-2-[[4-(2,6-dimethylphenyl)-7-quinolyl]oxy]propanoyl]-3-piperidyl]acetate]	< 20
Cc1ccccc1-c1cc(Cl)nc2cc(O[C@H](C)C(=O)O)ccc12 [Compound 43, (2R)-2-[[2-chloro-4-(o-tolyl)-7-quinolyl]oxy]propanoic acid]	100 to 1000
C[C@@H](Oc1ccc2c(-c3cccc(F)c3Cl)ccnc2c1)C(=O)N1CCC[C@H](CC(=O)O)C1 [Compound 65, 2-[(3R)-1-[(2R)-2-[[4-(2-chloro-3-fluoro-phenyl)-7-quinolyl]oxy]propanoyl]-3-piperidyl]acetic acid]	20 to 100
CCC(=O)N1CCN(C(=O)[C@@H](C)Oc2ccc3c(-c4ccccc4Cl)cc(Cl)nc3c2)CC1 [Compound 72, (2R)-2-[[2-chloro-4-(2-chlorophenyl)-7-quinolyl]oxy]-1-(4-propanoylpiperazin-1-yl)propan-1-one]	100 to 1000
CC(C)OC(=O)COc1ccc2c(-c3ccccc3Cl)ccnc2c1 [Compound 82, isopropyl 2-[[4-(2-chlorophenyl)-7-quinolyl]oxy]acetate]	1000 to 10000
Cc1cc(F)cc(C)c1-c1ccnc2cc(O[C@H](C)C(=O)N3CCC[C@H](C(=O)O)C3)ccc12 [Compound 84, (3S)-1-[(2R)-2-[[4-(4-fluoro-2,6-dimethyl-phenyl)-7-quinolyl]oxy]propanoyl]piperidine-3-carboxylic acid]	< 20
C[C@@H](Oc1ccc2c(-c3ccccc3Cl)cc(Cl)nc2c1)C(=O)N1CCN(C(=O)CN)CC1 [Compound 85, (2R)-1-[4-(2-aminoacetyl)piperazin-1-yl]-2-[[2-chloro-4-(2-chlorophenyl)-7-quinolyl]oxy]propan-1-one]	1000 to 10000
CCOC(=O)[C@H]1CCCN(C(=O)COc2ccc3c(-c4ccccc4Cl)ccnc3c2)C1 [Compound 87, ethyl (3S)-1-[2-[[4-(2-chlorophenyl)-7-quinolyl]oxy]acetyl]piperidine-3-carboxylate]	1000 to 10000
CCOC(=O)C[C@H]1CCCN(C(=O)[C@@H](C)Oc2ccc3c(-c4ccccc4Cl)cc(Cl)nc3c2)C1 [Compound 92, ethyl 2-[(3R)-1-[(2R)-2-[[2-chloro-4-(2-chlorophenyl)-7-quinolyl]oxy]propanoyl]-3-piperidyl]acetate]	1000 to 10000
CCOC(=O)C[C@H]1CCCN(C(=O)[C@@H](C)Oc2ccc3c(-c4ccc(F)cc4Cl)cc(Cl)nc3c2)C1 [Compound 93, ethyl 2-[(3R)-1-[(2R)-2-[[2-chloro-4-(2-chloro-4-fluoro-phenyl)-7-quinolyl]oxy]propanoyl]-3-piperidyl]acetate]	1000 to 10000
CCOC(=O)[C@H]1CCCN(C(=O)[C@@H](C)Oc2ccc3c(-c4ccc(F)cc4C)cc(Cl)nc3c2)C1 [Compound 94, ethyl (3S)-1-[(2R)-2-[[2-chloro-4-(4-fluoro-2-methyl-phenyl)-7-quinolyl]oxy]propanoyl]piperidine-3-carboxylate]	1000 to 10000
CNC(=O)[C@H]1CCCN(C(=O)[C@@H](C)Oc2ccc3c(-c4ccccc4Cl)cc(Cl)nc3c2)C1 [Compound 96, (3S)-1-[(2R)-2-[[2-chloro-4-(2-chlorophenyl)-7-quinolyl]oxy]propanoyl]-N-methyl-piperidine-3-carboxamide]	1000 to 10000
